2 compounds from patent US9198907B2, “Combinations of a HCV inhibitor such as bicyclic pyrrole derivatives and a therapeutic agent” (PTC Therapeutics, Inc., priority 2009, dated 2015) can be followed below.

This experiment deals with HCV replicon RNA in replicon cells. Kind of experiment: Replicon RNA response to antiviral agent(s), replicon RNA level by real time PCR (Taqman assay). The class given is cell-based. The protocol: Replicon cells were seeded at ˜5000 cells/well in 96-well collagen I-coated Biocoat plates (Becton Dickinson). At 24 hrs post-seeding, a series of replicon cells were treated with a HCV protease inhibitor and a HCV inhibitor. The final concentration of DMSO was 0.5%, fetal bovine serum was 10%, and G418 (an aminoglycoside used as a selective agent) was 500 μg/mL.
To each concentration of Compound 10p, HCV inhibitor Compound 22 was titrated. After 3 days, the cells were washed with PBS and lysed in 1× Cell Lysis Buffer (Ambion cat #8721).
The replicon RNA level was measured using real time PCR (Taqman assay). The ampicon was located in NS5b. The PCR primers used were: 5B.2F, ATGGACAGGCGCCCTGA (SEQ ID NO: 1); 5B.2R, […] (SEQ ID NO: 2); the probe sequence was FAM-labeled CACGCCATGCGCTGCGG (SEQ ID NO: 3). GAPDH RNA was used as endogenous control and was amplified in the same reaction as NS5b (multiplex PCR) using primers and VIC-labeled probe recommended by the manufacturer (PE Applied Biosystem). The real-time RT-PCR reactions were run on ABI PRISM 7900HT Sequence Detection System using the following program: 48° C. for 30 min, 95° C. for 10 min, 40 cycles of 95° C. for 15 sec, 60° C. for 1 min. The ΔCT values (CT5B-CTGAPDH) were plotted against test compound concentration and fitted to the sigmoid dose response model using Graphpad PRISM software (Graphpad Software Inc.). The half maximal inhibitory concentration (IC50) is the concentration necessary to achieve ΔCT=1 over the projected baseline. The 90% maximal inhibitory concentration (IC90) is the concentration necessary to achieve ΔCT=3.2 over the baseline. Alternatively, to quantitate the absolute amount of replicon RNA, a standard curve was established by including serially diluted T7 transcripts of replicon RNA in the Taqman assay. All Taqman reagents were from PE Applied Biosystem.

In the case of `CC(C)(C)NC(=O)N[C@H](C(=O)N1C[C@H]2[C@@H]([C@H]1C(=O)NC(CC1CCC1)C(=O)C(N)=O)C2(C)C)C(C)(C)C` (stereo partly drawn) [Cpd 10p, (1R,2S,5S)-N-(4-amino-1-cyclobutyl-3,4-dioxobutan-2-yl)-3-((S)-2-(3-tert-butylureido)-3,3-dimethylbutanoyl)-6,6-dimethyl-3-azabicyclo[3.1.0]hexane-2-carboxamide, reference compound], the “relative inhibition (logarithmic scale) of replicon RNA” value is, setting by setting: (Cpd 10p 0.15 μM, Compound 22 0 μM, replicon cells treated 3 days) −0.74; (Cpd 10p 1.2 μM, Compound 22 0 μM, replicon cells treated 3 days) −1.72.

Consider `COc1cnc2c(c1)c(C#N)c(-c1ccc(S(=O)(=O)N[C@@H](C)C(F)(F)F)cn1)n2C1CCC1` [Cpd 22, 6-(3-cyano-1-cyclobutyl-5-methoxy-1H-pyrrolo[2,3-b]pyridin-2-yl)-N-[(2S)-1,1,1-trifluoropropan-2-yl]pyridine-3-sulfonamide], for which the “relative inhibition (logarithmic scale) of replicon RNA” value is −1.09 (combination: Compound 22 0.045 μM + Cpd 10p 0.15 μM, 3 days); −1.77 (combination: Compound 22 0.045 μM + Cpd 10p 1.2 μM, 3 days); −1.45 (combination: Compound 22 0.405 μM + Cpd 10p 0.15 μM, 3 days); −1.91 (combination: Compound 22 0.405 μM + Cpd 10p 1.2 μM, 3 days).
